The values below come from patent US9085555B2, “Complement pathway modulators and uses thereof” (priority 2011, dated 2015).

The target of the assay is Factor D (Homo sapiens (Human), UniProt P00746). The assay can be described thus: biochemical. The assay is classed as biochemical. The conditions noted are these: read-out: IC50.
Factor D, sequence (P00746 26-253): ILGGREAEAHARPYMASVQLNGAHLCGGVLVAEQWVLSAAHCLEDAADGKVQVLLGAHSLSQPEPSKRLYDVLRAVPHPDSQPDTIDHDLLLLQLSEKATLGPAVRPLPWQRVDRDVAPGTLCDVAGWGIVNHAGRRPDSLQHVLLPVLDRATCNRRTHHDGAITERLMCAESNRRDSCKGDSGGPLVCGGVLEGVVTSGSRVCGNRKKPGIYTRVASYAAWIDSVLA
The term IC50 denotes the concentration at which inhibition is half-maximal. Take “2S,3R)-3-Acetylamino-pyrrolidine-1,2-dicarboxylic acid 1-[(1-carbamoyl-1H-indol-3-yl)-amide]2-(3-chloro-2-fluoro-benzylamide [Example 422]”: the IC50 was 888 nM.

In the case of `NC(=O)c1nn(CC(=O)N2[C@@H]3C[C@@H]3C[C@H]2C(=O)NCc2cccc(Cl)c2F)c2ccncc12` [Example 650, 1-{2-[(1R,3S,5R)-3-(3-Chloro-2-fluoro-benzylcarbamoyl)-2-aza-bicyclo[3.1.0]hex-2-yl]-2-oxo-ethyl}-1H-pyrazolo[4,3-c]pyridine-3-carboxylic acid amide], the IC50 stood at 22 nM. Under `CC(=O)c1cn(CC(=O)N2C[C@H](F)C[C@H]2C(=O)N[C@H](CO)c2cccc(Cl)c2F)c2ccccc12` [Example 518, (2S,4R)-1-[2-(3-Acetyl-indol-1-yl)-acetyl]-4-fluoro-pyrrolidine-2-carboxylic acid [(S)-1-(3-chloro-2-fluoro-phenyl)-2-hydroxy-ethyl]-amide] stands 41 nM; under `C[C@@H](CNC(=O)[C@@H]1C[C@H](N)CN1C(=O)Nc1cn(C(N)=O)c2ccccc12)c1ccccc1` [Example 84, (2S,4S)-4-Amino-pyrrolidine-1,2-dicarboxylic acid 1-[(1-carbamoyl-1H-indol-3-yl)-amide] 2-[((R)-2-phenyl-propyl)-amide]], 6000 nM; under `NC(=O)n1cc(NC(=O)N2C[C@@H](N)C[C@H]2C(=O)NCc2ccc(O)cc2)c2ccccc21` [Example 47, (2S,4S)-4-Amino-pyrrolidine-1,2-dicarboxylic acid 1-[(1-carbamoyl-1H-indol-3-yl)-amide] 2-(4-hydroxy-benzylamide)], 8950 nM. As to `NC(=O)n1cc(CC(=O)N2C[C@H](F)C[C@H]2C(=O)NCc2cccc(Cl)c2F)c2cc(F)ccc21` [Example 460, 3-{2-[(2S,4R)-2-(3-Chloro-2-fluoro-benzylcarbamoyl)-4-fluoro-pyrrolidin-1-yl]-2-oxo-ethyl}-5-fluoro-indole-1-carboxylic acid amide], the half-maximal inhibitory concentration (IC50) was found to be 20 nM. Consider `CNC(=O)n1cc(NC(=O)N2[C@@H]3C[C@@H]3C[C@H]2C(=O)N[C@H](COC)c2cccc(Cl)c2F)c2ccccc21` [Example 270, (1R,3S,5R)-2-Aza-bicyclo[3.1.0]hexane-2,3-dicarboxylic acid 3-{[(S)-1-(3-chloro-2-fluoro-phenyl)-2-methoxy-ethyl]-amide} 2-[(1-methylcarbamoyl-1H-indol-3-yl)-amide]], for which the IC50 came out at 54 nM. With `NC(=O)n1cc(CC(=O)N2[C@@H]3C[C@@H]3C[C@H]2C(=O)NCc2ccc(Cl)s2)c2ccccc21` [Example 456, 3-(2-{(1R,3S,5R)-3-[(5-Chloro-thiophen-2-ylmethyl)-carbamoyl]-2-aza-bicyclo[3.1.0]hex-2-yl}-2-oxo-ethyl)-indole-1-carboxylic acid amide] the figure was 85 nM; with `NC(=O)n1cc(NC(=O)N2[C@@H]3C[C@@H]3C[C@H]2C(=O)NCc2cccnc2)c2ccccc21` [Example 226, (1R,3S,5R)-2Azabicyclo[3.1.0]hexane-2,3-dicarboxylic acid 2-[(1-carbamoyl-1H-indol-3-yl)amide] 3-[(pyridin-3-ylmethyl)-amide]], 417 nM; with `NCc1ccc(-c2cccc(NC(=O)[C@@H]3CCCN3C(=O)Nc3cn(C(N)=O)c4ccccc34)c2)c(F)c1` [Example 401, (S)-Pyrrolidine-1,2-dicarboxylic acid 2-[(4′-aminomethyl-2′-fluoro-biphenyl-3-yl)-amide]1-[(1-carbamoyl-1H-indol-3-yl)-amide]], 1050 nM.

For `CC(=O)c1cn(CC(=O)N2[C@@H]3C[C@@H]3C[C@H]2C(=O)NCc2cc(-c3nnn[nH]3)cc(Cl)c2F)c2ccccc12` [Example 525, (1R,3S,5R)-2-[2-(3-Acetyl-indol-1-yl)-acetyl]-2-aza-bicyclo[3.1.0]hexane-3-carboxylic acid 3-chloro-2-fluoro-5-(1H-tetrazol-5-yl)-benzylamide], the IC50 was 36 nM. Take `NC(=O)n1cc(NC(=O)N2CCS[C@H]2C(=O)NCc2ccc(Cl)s2)c2ccccc21` [Example 293, (S)-Thiazolidine-2,3-dicarboxylic acid 3-[(1-carbamoyl-1H-indol-3-yl)-amide] 2-[(5-chloro-thiophen-2-ylmethyl)-amide]]: the IC50 was determined as 35 nM. Under `N#C[C@H]1C[C@@H](C(=O)Nc2cccc(OC(F)(F)F)c2)N(C(=O)Nc2cn(C(N)=O)c3ccccc23)C1` [Example 125, (2S,4S)-4-Cyano-pyrrolidine-1,2-dicarboxylic acid 1-[(1-carbamoyl-1H-indol-3-yl)-amide]2-[(3-trifluoromethoxy-phenyl)-amide]] stands 5100 nM; under `NC(=O)n1cc(NC(=O)N2C[C@H](F)C[C@H]2CNS(=O)(=O)c2cccc(F)c2)c2ccccc21` [Example 106, 3-({(2S,4R)-4-Fluoro-2-[(3-fluoro-benzenesulfonylamino)-methyl]-pyrrolidine-1-carbonyl}-amino)-indole-1-carboxylic acid amide], 700 nM; under `CCOC(=O)Cc1ccc2c(NC(=O)N3[C@@H]4C[C@@H]4C[C@H]3C(=O)NCc3cccc(Cl)c3F)cn(C(N)=O)c2c1` [Example 315, (1-carbamoyl-3-{[(1R,3S,5R)-3-(3-chloro-2-fluoro-benzylcarbamoyl)-2-aza-bicyclo[3.1.0]hexane-2-carbonyl]-amino}-1H-indol-6-yl)-acetic acid ethyl ester], 13 nM. Under `CN(C)C[C@@H](NC(=O)[C@@H]1C[C@H]2C[C@H]2N1C(=O)Nc1cn(C(N)=O)c2ccccc12)c1cccc(Cl)c1F` [Example 314, (1R,3S,5R)-2-Aza-bicyclo[3.1.0]hexane-2,3-dicarboxylic acid 2-[(1-carbamoyl-1H-indol-3-yl)-amide] 3-{[(S)-1-(3-chloro-2-fluoro-phenyl)-2-dimethylamino-ethyl]-amide}] stands 20 nM; under `COCCOc1ccc2c(c1)c(NC(=O)N1C3CC3C[C@H]1C(=O)NCc1cccc(Cl)c1F)cn2C(N)=O` (stereo partly drawn) [Example 162, (1R,3S,5R)-2-Aza-bicyclo[3.1.0]hexane-2,3-dicarboxylic acid 2-{[1-carbamoyl-5-(2-methoxy-ethoxy)-1H-indol-3-yl]-amide} 3-(3-chloro-2-fluoro-benzylamide)], 5 nM; under `NC(=O)n1cc(NC(=O)N2C[C@@H]3C[C@@H]3[C@H]2C(=O)N[C@H](CO)c2cccc(Cl)c2F)c2ccccc21` [Example 207, (1S,2S,5R)-3-Azabicyclo[3.1.0]hexane-2,3-dicarboxylic acid 3-[(1-carbamoyl-1H-indol-3-yl)-amide] 2-{[(S)-1-(3-chloro-2-fluoro-phenyl)-2-hydroxy-ethyl]-amide}], 321 nM. Under `CC(=O)c1nn(CC(=O)N2[C@@H]3C[C@@H]3C[C@H]2C(=O)Nc2cccc(OC(F)(F)F)c2F)c2ccc(OCc3ncccn3)cc12` [Example 718, (1R,3S,5R)-2-{2-[3-Acetyl-5-(pyrimidin-2-ylmethoxy)-indazol-1-yl]-acetyl}-2-aza-bicyclo[3.1.0]hexane-3-carboxylic acid (2-fluoro-3-trifluoromethoxy-phenyl)-amide] stands 24 nM; under `CC(=O)c1cn(CC(=O)N2[C@@H]3C[C@@H]3C[C@H]2C(=O)NCc2cccc(Cl)c2F)c2ccncc12` [Example 524, (1R,3S,5R)-2-[2-(3-Acetyl-pyrrolo[3,2-c]pyridin-1-yl)-acetyl]-2-aza-bicyclo[3.1.0]hexane-3-carboxylic acid 3-chloro-2-fluoro-benzylamide], 64 nM. Turning to `CC(=O)c1nn(CC(=O)N2[C@@H]3C[C@@H]3C[C@H]2C(=O)NCc2cccc(Cl)c2F)c2cc(C(=O)O)ccc12` [Example 639, 3-Acetyl-1-{2-[(1R,3S,5R)-3-(3-chloro-2-fluoro-benzylcarbamoyl)-2-aza-bicyclo[3.1.0]hex-2-yl]-2-oxo-ethyl}-1H-indazole-6-carboxylic acid], the IC50 was determined as 62 nM. Under `COc1ccc2c(c1)c(C(N)=O)cn2CC(=O)N1C[C@H](F)C[C@H]1C(=O)NCc1cccc(Cl)c1F` [Example 497, 1-{2-[(2S,4R)-2-(3-Chloro-2-fluoro-benzylcarbamoyl)-4-fluoro-pyrrolidin-1-yl]-2-oxo-ethyl}-5-methoxy-1H-indole-3-carboxylic acid amide] stands 128 nM.

With `CC(=O)c1cn(CC(=O)N2[C@@H]3C[C@@H]3C[C@H]2C(=O)NCc2cccc(Cl)c2F)c2ccc(O)cc12` [Example 581, (1R,3S,5R)-2-[2-(3-Acetyl-5-hydroxy-indol-1-yl)-acetyl]-2-aza-bicyclo[3.1.0]hexane-3-carboxylic acid 3-chloro-2-fluoro-benzylamide], the half-maximal inhibitory concentration (IC50) was 60 nM. Regarding `COc1cccc2c(C(N)=O)cn(CC(=O)N3C[C@H](F)C[C@H]3C(=O)NCc3cccc(Cl)c3F)c12` [Example 477, 1-{2-[(2S,4R)-2-(3-Chloro-2-fluoro-benzylcarbamoyl)-4-fluoro-pyrrolidin-1-yl]-2-oxo-ethyl}-7-methoxy-1H-indole-3-carboxylic acid amide], the IC50 is 628 nM. For the compound `NC[C@H]1C[C@@H](C(=O)Nc2cccc(OC(F)(F)F)c2)N(C(=O)Nc2cn(C(N)=O)c3ccccc23)C1` [Example 403, (2S,4R)-4-Aminomethyl-pyrrolidine-1,2-dicarboxylic acid 1-[(1-carbamoyl-1H-indol-3-yl)-amide]2-[(3-trifluoromethoxy-phenyl)-amide]], the IC50 came to 1000 nM.

With `CC(=O)c1cn(CC(=O)N2C[C@H](F)C[C@H]2C(=O)NCc2cc(C(=O)O)cc(Cl)c2F)c2ccccc12` [Example 605, 3-[({(2S,4R)-1-[2-(3-Acetyl-indol-1-yl)-acetyl]-4-fluoro-pyrrolidine-2-carbonyl}-amino)-methyl]-5-chloro-4-fluoro-benzoic acid], the IC50 was found to be 54 nM. Under `CNC(=O)c1cn(CC(=O)N2C[C@H](F)C[C@H]2C(=O)NCc2cccc(Cl)c2F)c2ccccc12` [Example 519, 1-{2-[(2S,4R)-2-(3-Chloro-2-fluoro-benzylcarbamoyl)-4-fluoro-pyrrolidin-1-yl]-2-oxo-ethyl}-1H-indole-3-carboxylic acid methylamide] stands 722 nM.
